The source of these data is US20230183179A1, “NOVEL CELL METABOLISM MODULATING COMPOUNDS AND USES THEREOF” (CRESCENTA BIOSCIENCES, priority 2020, published 2023).

SMILES strings stand for the structures. Where only a bound is given, the exact number is not on record here.

Experiment [1] has as its target T1, His6 tagged human recombinant FABP4 (Homo sapiens, UniProt P15090).
T1 construct: purchased Cayman Chemicals 10009549
The experiment is described as follows: FABP4 TR-FRET assay: displacement of fluorescent fatty acid BODIPY FL C12. The conditions noted are these: inhibition of BODIPY FL C12 binding to His6-FABP4; 1.2 μL of 1.085 mM compound in DMSO per well; triplicates, mean percent inhibition. In outline: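 TR-FRET displacement of BODIPY FL C12 from His6-FABP4 bound by Tb-anti-His6 antibody, in Tris pH 7.4 buffer with γ-globulins, NP-40 and DTT; compound stock 1.085 mM in DMSO. Read after 10 min at room temperature as 520/615 nm ratio; mean % inhibition versus DMSO from triplicates.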

Experiment [2] deals with differentiated 3T3-L1 mouse adipocyte cells. The experiment is described as follows: Adipocyte glucose consumption in differentiated 3T3-L1 cells (colorimetric glucose assay of the medium). It counts as cell-based. The settings on record: 3T3-L1, 24 h, compound 10 μM, loss of glucose from culture medium, mean fold change (compound/DMSO). In outline: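 Differentiated 3T3-L1 mouse adipocytes (rosiglitazone/dexamethasone/IBMX/insulin induction, day 11) treated 24 h with compounds at 10 μM, 0.1% DMSO final. Medium glucose measured colorimetrically; consumption taken as glucose loss from medium versus cell-free control, expressed as mean fold change compound/DMSO ±SD.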

T1 sequence (P15090 whole entry): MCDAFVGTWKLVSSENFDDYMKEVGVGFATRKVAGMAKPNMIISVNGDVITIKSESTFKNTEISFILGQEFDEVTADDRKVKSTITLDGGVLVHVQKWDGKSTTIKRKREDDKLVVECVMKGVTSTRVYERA

A word on the inhibition: it is the share of the control response that was lost under treatment. By fold induction is commonly meant the signal under treatment as a multiple of the control signal. Turning to `CN(CC(=O)O)c1cc(-c2ccccc2)c2cc(CCN3CCOCC3)ccc2n1` [2-[methyl({6-[2-(morpholin-4-yl)ethyl]-4-phenylquinolin-2-yl})amino]acetic acid], in experiment [1], the inhibition at 1085 µM (stock) stood at 6.78%. In experiment [2], the fold induction at 10 µM came out at 1.13.
For the molecule `CCCCc1ccc2nc(N(C)CC(=O)O)cc(-c3cccc(C)c3)c2c1` [2-{[6-butyl-4-(3-methylphenyl)quinolin-2-yl](methyl)amino}acetic acid], the inhibition at 1085 µM (stock) in experiment [1] was 82.4%. Also, in experiment [2], the fold induction at 10 µM is 1.4.
`CCCCc1ccc2nc(OCC(=O)O)cc(-c3cccc(C#N)c3)c2c1` [2-{[6-butyl-4-(3-cyanophenyl)quinolin-2-yl]oxy}acetic acid]: the inhibition at 1085 µM (stock) in experiment [1] amounted to 36.2%. In addition, the fold induction at 10 µM in experiment [2] stood at 1.12.
In the same order, the values of `CCCCc1ccc2nc(N(C)CC(=O)O)cc(-c3cccnc3)c2c1` [2-{[6-butyl-4-(pyridin-3-yl)quinolin-2-yl](methyl)amino}acetic acid] are 39.2% and 1.19.
Regarding `CN(CC(=O)O)c1cc(-c2ccccc2)c2cc(OCc3ccccc3)ccc2n1` [2-{[6-(benzyloxy)-4-phenylquinolin-2-yl](methyl)amino}acetic acid], in experiment [1], the inhibition at 1085 µM (stock) turned out to be 84.2%. This molecule also registered a fold induction at 10 µM in experiment [2] of 1.27.
In the case of `CN(CC(=O)O)c1cc(-c2ccccc2)c2cc(CCc3cnc4ccccc4n3)ccc2n1` [2-[methyl({4-phenyl-6-[2-(quinoxalin-2-yl)ethyl]quinolin-2-yl})amino]acetic acid], the inhibition at 1085 µM (stock) in experiment [1] worked out at 33.6%. In experiment [2], this molecule yielded a fold induction at 10 µM of 1.28.
As for `CN(CC(=O)O)c1cc(-c2ccccc2)c2cc(CCc3ccncc3)ccc2n1` [2-[methyl({4-phenyl-6-[2-(pyridin-4-yl)ethyl]quinolin-2-yl})amino]acetic acid], the inhibition at 1085 µM (stock) in experiment [1] was less than 0%. In experiment [2], this molecule had a fold induction at 10 µM of 1.26.
In the same order, the values of `CN(CC(=O)O)c1cc(-c2ccccc2)c2cc(CCc3ccccc3Cl)ccc2n1` [2-({6-[2-(2-chlorophenyl)ethyl]-4-phenylquinolin-2-yl}(methyl)amino)acetic acid] are 30.1% and 1.26.
As for `CC(Oc1cc(-c2ccccc2)c2cc(CCc3ccccc3)ccc2n1)C(=O)O` (stereo not drawn) [2-{[4-phenyl-6-(2-phenylethyl)quinolin-2-yl]oxy}propanoic acid], the inhibition at 1085 µM (stock) in experiment [1] is 34.1%. In addition, the fold induction at 10 µM in experiment [2] was determined as 1.21.
For the molecule `CCCCCCc1ccc2nc(N(C)CC(=O)O)cc(Oc3ccc(F)cc3)c2c1` [2-([4-(4-fluorophenoxy)-6-hexylquinolin-2-yl](methyl)amino}acetic acid], the inhibition at 1085 µM (stock) in experiment [1] came to 65.2%. In experiment [2], the fold induction at 10 µM is 1.27.
In the case of `CCCCCCc1ccc2nc(N3CCOC(C(=O)O)C3)cc(-c3ccccc3)c2c1` (stereo not drawn) [4-(6-hexyl-4-phenylquinolin-2-yl)morpholine-2-carboxylic acid], the inhibition at 1085 µM (stock) in experiment [1] was determined as 36.1%. Further, the fold induction at 10 µM in experiment [2] stood at 1.22.
As to `CCCCCCCCc1ccc2nc(N(C)CC(=O)O)cc(Oc3ccncc3)c2c1` [2-{methyl [6-octyl-4-(pyridin-4-yloxy)quinolin-2-yl]amino}acetic acid], in experiment [1], the inhibition at 1085 µM (stock) was determined as 19.4%. Also, the fold induction at 10 µM in experiment [2] was 1.14.
With `CCCCCCc1ccc2nc(N(C)CC(C)C(=O)O)cc(-c3ccccc3)c2c1` (stereo not drawn) [3-[(6-hexyl-4-phenylquinolin-2-yl)(methyl)amino]-2-methylpropanoic acid], the inhibition at 1085 µM (stock) in experiment [1] came out at 89.7%. This molecule came in with a fold induction at 10 µM in experiment [2] of 1.31.
On to `CN(CC(=O)O)c1cc(-c2cccc(C(N)=O)c2)c2cc(Br)ccc2n1` [2-{[6-bromo-4-(3-carbamoylphenyl)quinolin-2-yl](methyl)amino}acetic acid], for which the inhibition at 1085 µM (stock) in experiment [1] worked out at 93.8%. Moreover, the fold induction at 10 µM in experiment [2] came out at 1.1.
For the molecule `CCCCCCc1ccc2nc(N(CC(=O)O)CC(C)C)cc(-c3ccc(F)cc3)c2c1` [2-{[4-(4-fluorophenyl)-6-hexylquinolin-2-yl](2-methylpropyl)amino}acetic acid], in experiment [1], the inhibition at 1085 µM (stock) is 78.7%. In addition, in experiment [2], the fold induction at 10 µM amounted to 1.18.
In the same order, the values of `NC(=O)c1cccc(-c2cc(OCC(=O)O)nc3ccc(Br)cc23)c1` [2-{[6-bromo-4-(3-carbamoylphenyl)quinolin-2-yl]oxy}acetic acid] are 19.1% and 1.
On to `CCCCc1ccc2nc(N(C)CC(=O)O)cc(-c3cccc(F)c3)c2c1` [2-{[6-butyl-4-(3-fluorophenyl)quinolin-2-yl](methyl)amino}acetic acid], for which the inhibition at 1085 µM (stock) in experiment [1] was 58.9%. In experiment [2], this molecule gave a fold induction at 10 µM of 1.43.
In the same order, the values of `CN(CC(=O)O)c1cc(-c2ccc(F)cc2)c2cc(-c3ccc(F)cc3)ccc2n1` [2-{[4,6-bis(4-fluorophenyl)quinolin-2-yl](methyl)amino}acetic acid] are 42% and 1.28.
In the same order, the values of `CN(CC(=O)O)c1cc(-c2ccccc2)c2cc(CCc3nc4ccccc4o3)ccc2n1` [2-({6-[2-(1,3-benzoxazol-2-yl)ethyl]-4-phenylquinolin-2-yl}(methyl)amino)acetic acid] are 27.4% and 1.23.
For `CN(CC(=O)O)c1cc(-c2ccccc2)c2cc(CCc3ccc4ncccc4c3)ccc2n1` [2-[methyl({4-phenyl-6-[2-(quinolin-6-yl)ethyl]quinolin-2-yl})amino]acetic acid], in experiment [1], the inhibition at 1085 µM (stock) came to 34.7%. The molecule further came in with a fold induction at 10 µM in experiment [2] of 1.4.
For `CCCCCCCCc1ccc2nc(N(CC(=O)O)CC(C)C)cc(-c3ccc(F)cc3)c2c1` [2-{[4-(4-fluorophenyl)-6-octylquinolin-2-yl](2-methylpropyl)amino}acetic acid], the inhibition at 1085 µM (stock) in experiment [1] was found to be 68%. This molecule yielded a fold induction at 10 µM in experiment [2] of 1.28.
